In patent US20210290568A1, “INHALABLE FORMULATION OF A SOLUTION CONTAINING LEVALBUTEROL TARTRATE” (priority 2020, published 2021):

Assay: Aerodynamic particle size distribution by Andersen Cascade Impactor (ACI)
Format: physicochemical
Details: flow rate 28.3 L/min, Samples I-V
Protocol: An Andersen Cascade Impactor (ACI) was used to determine the particle size distribution of Samples I-V. The test was conducted at a flow rate of 28.3 L/min. Deposition of the active substance on each ACI plate was determined by high performance liquid chromatography. The particle size was expressed in terms of mass median aerodynamic diameter (MMAD) and Geometric Standard Deviation (GSD).

GSD: 1.7
MMAD: 4.4 μm
Compound: CC(C)(C)NC[C@H](O)c1ccc(O)c(CO)c1.O=C(O)C(O)C(O)C(=O)O [Levalbuterol Tartrate, 4-[(1R)-2-(tert-butylamino)-1-hydroxyethyl]-2-(hydroxymethyl)phenol; (2R,3R)-2,3-dihydroxybutanedioic acid]
